This is an account of results in patent US20130224219A1, “DRUG AND METHOD FOR THE PROPHYLAXIS OF HIV INFECTION AND FOR THE PROPHYLAXIS AND TREATMENT OF DISEASES CAUSED BY OR ASSOCIATED WITH HIV, INCLUDING AIDS” (priority 2010, published 2013).

A word on the inhibition: it is the percentage by which the read-out fell short of the control.

In this assay the test system is HIV-1-LAI. Description: Inhibition of HIV replication in human peripheral blood mononuclear cells infected in vitro, p24 ELISA. The format is cell-based. Conditions: Human immunodeficiency virus 1, PBMC, read-out: inhibition of HIV replication (nucleocapsid core protein p24 in cell supernatants). The procedure: Antiretroviral action of the claimed medicinal agent was studied by inhibiting the replication of HIV in the culture of mononuclear cells of the peripheral human blood which were infected in vitro by the strain of HIV-1-LAI. Effective inhibition of HIV replication was evaluated by the content of basic nuclecapsid protein r24 in the supernatant of HIV.
Human peripheral blood mononuclear cells were isolated from the blood of healthy seronegative donors by density gradient centrifugation of Ficoll-Hypaque. Cells were activated for 3 days with […] phytogemmaglyutin P and 5 ME/ml of recombinant human interleukin-2 […]
Cell culture supernatants were collected at day 7 after infection. Efficacy of the drugs was determined by the inhibition of HIV replication, which was evaluated by content nucleocapsid core protein p24 of HIV in cell supernatants by ELISA (Retrotek Elisa kit).
Antiretroviral effect of the claimed medicinal agent studied by inhibiting HIV replication in cultured peripheral blood mononuclear cells of human infected in vitro HIV-1-LAI. Effective inhibition of HIV replication was evaluated by the content of basic nucleocapsid protein p24 in the supernatants of HIV. […]
(In an ELISA, binding on a coated surface is turned into a signal by an enzyme label.)

On to `Cc1cn([C@H]2C[C@H](N=[N+]=[N-])[C@@H](CO)O2)c(=O)[nH]c1=O` [AZT, zidovudine], for which the inhibition at 1 µM is 99%.
